Test results published in the supplement of paper PMC10721915.

What was measured:
Assay in all cases: relative cell growth vs untreated control (GI, NCI-DTP normalisation with time-zero) (fraction of control growth); higher = more growth / less inhibition
Conditions in all cases: treatment time: 120 h
A549 = tested on: A549
Description: (§1)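 Cancer cell lines in 96-well plates were treated 48 h after seeding with M4076 (ATM inhibitor) and berzosertib (ATR inhibitor), alone or mixed, in 4-fold dilutions for 120 h. Protein was read by sulforhodamine B staining, background-subtracted and normalised NCI-DTP style to untreated control growth. Rows with one concentration equal to 0 are monotherapy.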

HL60 = tested on: HL60
Description: as §1

IGROV1 = tested on: IGROV1
Description: as §1

LOVO = tested on: LOVO
Description: as §1

MDAMB231 = tested on: MDAMB231
Description: as §1

MHHES1 = tested on: MHHES1
Description: as §1

RAMOS = tested on: RAMOS
Description: as §1

COc1cc2ncc3c(c2cc1-c1cn(C)nc1C)n(-c1c(F)cncc1OC)c(=O)n3C [M4076] + CNCc1ccc(-c2cc(-c3nc(-c4ccc(S(=O)(=O)C(C)C)cc4)cnc3N)on2)cc1 [berzosertib]
relative cell growth
Conditions	A549	HL60	IGROV1	LOVO	MDAMB231	MHHES1	RAMOS
concentration of first compound 0.0195 µM, concentration of partner 0 M	1.18	1.14	1.27	1.25	1.06	1.19	1.04
concentration of first compound 0.0195 µM, concentration of partner 0.2 µM	0.64	1.06	0.543	0.105	1.1	0.662	1.14
concentration of first compound 0.0781 µM, concentration of partner 0 M	1.22	1.13	1.36	1.21	1.02	1.15	1.12
concentration of first compound 0.0781 µM, concentration of partner 0.2 µM	0.574	1.12	0.527	0.209	0.932	0.505	1.17
concentration of first compound 0.313 µM, concentration of partner 0 M	1.16	1.03	1.18	1.09	0.93	1.05	1.01
concentration of first compound 0.313 µM, concentration of partner 0.2 µM	0.267	0.788	0.376	0.0984	0.499	0.17	1.12
concentration of first compound 1 µM, concentration of partner 0 M	0.924	0.862	0.9	0.971	0.858	0.809	0.888
concentration of first compound 1 µM, concentration of partner 0.0195 µM	0.89	0.88	0.964	0.763	0.907	0.753	0.918
concentration of first compound 1 µM, concentration of partner 0.0781 µM	0.431	0.707	0.604	0.508	0.708	0.224	0.945
concentration of first compound 1 µM, concentration of partner 0.313 µM	0.0877	0.0883	0.0905	-0.0419	0.198	0.0239	0.751
concentration of first compound 1 µM, concentration of partner 1.25 µM	0.00284	0.00814	-0.0208	-0.0608	-0.00535	-0.0145	0.0625
concentration of first compound 1 µM, concentration of partner 5 µM	0.00285	-0.0212	-0.0274	-0.0633	-0.032	-0.0266	0.0153
concentration of first compound 1.25 µM, concentration of partner 0 M	1.09	0.958	1.02	1.1	0.775	0.97	0.914
concentration of first compound 1.25 µM, concentration of partner 0.2 µM	0.153	0.344	0.327	-0.000928	0.328	0.0696	1.09
concentration of first compound 5 µM, concentration of partner 0 M	0.955	0.746	0.48	0.981	0.695	0.65	0.778
concentration of first compound 5 µM, concentration of partner 0.2 µM	0.11	0.207	0.0986	-0.0311	0.42	0.05	0.915

CNCc1ccc(-c2cc(-c3nc(-c4ccc(S(=O)(=O)C(C)C)cc4)cnc3N)on2)cc1 [berzosertib] + COc1cc2ncc3c(c2cc1-c1cn(C)nc1C)n(-c1c(F)cncc1OC)c(=O)n3C [M4076]
relative cell growth, concentration of partner 0 M
Conditions	A549	HL60	IGROV1	LOVO	MDAMB231	MHHES1	RAMOS
concentration of first compound 0.0195 µM	1.22	1.14	1.15	1.07	1.06	1.26	1.1
concentration of first compound 0.0781 µM	0.999	1.1	1.01	0.826	1.09	1.21	1.11
concentration of first compound 0.2 µM	0.464	0.809	0.468	0.211	0.976	0.599	1.16
concentration of first compound 0.313 µM	0.294	0.53	0.129	0.0258	0.775	0.436	1.05
concentration of first compound 1.25 µM	0.0316	0.0485	-0.0355	-0.0498	0.0906	0.0564	0.322
concentration of first compound 5 µM	-0.00795	-0.0133	-0.0657	-0.0599	-0.057	-0.0244	0.103
